Assays:
[1] = Method validation: stability in standard, stock and working solution; settings: IS 2000 ng/mL
[2] = Stability of ingredients in gastric pH solution (pH 1.2, 37°C); type: physicochemical
Procedure: Rikkunshito gradually dissolved in acidic solution (pH 1.2) at 37°C, and the concentration of atractylodin after adding 0.25, 0.5, 1, and 2 h was measured by gas chromatography–mass spectrometry.

[3] = Exploratory trial: amount of rikkunshito ingredients in urine; type: in vivo, human
Procedure: (§1) In the first exploratory trial, 20-mL blood samples were collected from the cutaneous vein in the subjects’ forearm via a blood sampling tube that contained heparin at 0 (preadministration), 0.5, 1, 2, 4, and 8 h after a single oral administration of rikkunshito (Lot E24652). The dose of rikkunshito used in this trial was 7.5 g/day, which is the clinical daily dose, to widely explore rikkunshito-derived ingredients that enter the blood. Along with plasma, urine samples were collected at three points: between dinner and bedtime (preadministration), between 0 and 4 h after administration, and between 4 and 8 h after administration. The blood was immediately centrifuged at 1700 ×g for 10 min to obtain plasma. Plasma and urine fractions were stored at −80°C or lower until analysis.
(§2) For quantification of synephrine, 5 µL of standard solution or methanol was added to 100 µL plasma or urine samples followed by mixing. Ten microliters of erythromycin [internal standard (IS)] solution was added to the solutions followed by mixing and centrifugation (20,400 ×g, 5 min, 4°C). The supernatants were loaded onto an Ostro 96-well plate (Waters) and centrifuged (1500 ×g, 3 min, 4°C) followed by injection into the LC–MS/MS.
(§3) For quantification of 30 ingredients other than atractylodin and synephrine, 25 µL of standard solution or methanol was added to 500 µL plasma or urine samples followed by mixing. Atractylenolide III or digoxin (IS) solution (50 μL) was added to the solutions followed by mixing. For urine, 400 µL of blank plasma was added to the solutions. Ammonium acetate solution (100 mM, 100 or 400 µL) was added to the solutions followed by mixing. For enzymatic treatment, plasma and urine samples were incubated with β-glucuronidase (100 units in 100 mM ammonium acetate) for 2 h at 37°C. A solid-phase cartridge (OASIS HLB, 30 mg/1cc, Waters) was conditioned with methanol and 10 mM ammonium acetate solution, and the samples were loaded onto the cartridge. The cartridge was washed water : methanol (9:1, v/v), and 1.5 mL of methanol and 30 µL of propylene glycol were added to the cartridge to elute the analytes. The mixtures were dried at 25°C under a stream of nitrogen gas. Furthermore, 100 μL of 10 mM ammonium acetate : methanol (8:2, v/v) was added to the dried samples followed by mixing and sonication. The solutions were filtered (0.22 µm) and followed by injection into the LC–MS/MS system. […] Those analytical conditions are summarized in S2 Table and S3 Table.

[4] = Exploratory trial: plasma concentration of rikkunshito ingredients after single oral rikkunshito 7.5 g; type: in vivo; settings: mean ± S.D., n = 4
Procedure: A random sequence was generated using a computer. The safety endpoint was evaluated in all volunteers.
as §1, §2, §3

[5] = Exploratory trial: ingredients in β-glucuronidase (enzyme)-treated urine; type: in vivo, human
Procedure: as §1, §3

[6] = rikkunshito in acidic solution (pH 1.2) at 37°C, 0.5 h
[7] = rikkunshito in acidic solution (pH 1.2) at 37°C, 1 h
[8] = rikkunshito in acidic solution (pH 1.2) at 37°C, 2 h
[9] = 0–4 h after single oral rikkunshito 7.5 g, mean ± S.D., n = 4
[10] = 4–8 h after single oral rikkunshito 7.5 g, mean ± S.D., n = 4
[11] = preadministration (between dinner and bedtime), mean ± S.D., n = 4
[12] = β-glucuronidase-treated, 0–4 h after rikkunshito 7.5 g, mean ± S.D., n = 4
[13] = β-glucuronidase-treated, 4–8 h after rikkunshito 7.5 g, mean ± S.D., n = 4
[14] = β-glucuronidase-treated, preadministration, mean ± S.D., n = 4

| Stability in gastric pH solution, Quantitative value [2, 6] | Stability in gastric pH solution, Quantitative value [2, 7] | Stability in gastric pH solution, Quantitative value [2, 8] | Increase of urine concentration after β-glucuronidase treatment compared with before treatment ([5]; rikkunshito 7.5 g) | Amount in enzyme-treated urine, 0–4 h [5, 12] | Amount in enzyme-treated urine, 4–8 h [5, 13] | Amount in enzyme-treated urine, Pre [5, 14] | SMILES | Amount in urine, 0–4 h [3, 9] | Amount in urine, 4–8 h [3, 10] | Amount in urine, Pre [3, 11] | other results |
| --- | --- | --- | --- | --- | --- | --- | --- | --- | --- | --- | --- |
| 17.9 ng/mL | 18.5 ng/mL | 17.9 ng/mL | more than 10 fold | 4980 ± 1480 ng | 392 ± 310 ng | 109 ± 160 ng | CCCCC/C=C/C(=O)CCc1ccc(O)c(OC)c1 [[6]-Shogaol, [6]-Shogaol] | 459 ± 283 ng | 15.4 ± 30.7 ng | 16.3 ± 26.4 ng | – |
| 2.00 ng/mL | 1.89 ng/mL | 1.83 ng/mL | more than 10 fold | 239 ± 62.5 ng | BQL | 3.73 ± 7.46 ng | CCCCCCC/C=C/C(=O)CCc1ccc(O)c(OC)c1 [[8]-Shogaol, [8]-Shogaol] | 9.00 ± 18.0 ng | BQL | BQL | – |

The remaining lines, values behind:

| SMILES | Stability in gastric pH solution, Quantitative value [2, 6] | Stability in gastric pH solution, Quantitative value [2, 7] | Stability in gastric pH solution, Quantitative value [2, 8] | Increase of urine concentration after β-glucuronidase treatment compared with before treatment ([5]; rikkunshito 7.5 g) | Amount in enzyme-treated urine, 0–4 h [5, 12] | Amount in enzyme-treated urine, 4–8 h [5, 13] | Amount in enzyme-treated urine, Pre [5, 14] | Amount in urine, 0–4 h [3, 9] | Amount in urine, 4–8 h [3, 10] | Amount in urine, Pre [3, 11] | other results |
| --- | --- | --- | --- | --- | --- | --- | --- | --- | --- | --- | --- |
| C=C1CCC[C@]2(C)C[C@]3(O)OC(=O)C(C)=C3C[C@@H]12 [IS, Atractylenolide III, reference compound] | – | – | – | – | – | – | – | – | – | – | Short-term stability of standard solution, RR ([1]; at room temperature for 24 h): IS: 100.0%; Long-term stability of standard solution, RR ([1]; refrigerator (0.5°C to 7.4°C) for 4 weeks): IS: 93.4% |
| CNCC(O)c1ccc(O)cc1 (centres unmarked) [Synephrine] | 3200 ng/mL | 3180 ng/mL | 2960 ng/mL | – | – | – | – | 2150 ± 296 ng | 798 ± 282 ng | 24.2 ± 28.8 ng | Plasma concentration, 0 h ([4]; 0 h (preadministration), single oral rikkunshito 7.5 g): BQL; Plasma concentration, 0.5 h ([4]; 0.5 h after single oral rikkunshito 7.5 g): 0.029 ± 0.058 ng/mL; Plasma concentration, 1 h ([4]; 1 h after single oral rikkunshito 7.5 g): BQL; Plasma concentration, 2 h ([4]; 2 h after single oral rikkunshito 7.5 g): BQL; Plasma concentration, 4 h ([4]; 4 h after single oral rikkunshito 7.5 g): BQL; Plasma concentration, 8 h ([4]; 8 h after single oral rikkunshito 7.5 g): BQL |
| CCCCC[C@H](O)CC(=O)CCc1ccc(O)c(OC)c1 [[6]-Gingerol, [6]-Gingerol] | – | – | – | – | – | – | – | – | – | – | Stability in gastric pH solution, Quantitative value ([2]; 0.5 h, pH 1.2): 152 ng/mL; Stability in gastric pH solution, Quantitative value ([2]; 1 h, pH 1.2): 154 ng/mL; Stability in gastric pH solution, Quantitative value ([2]; 2 h, pH 1.2): 149 ng/mL; Amount in urine, Pre ([3]; human, in vivo): 18.6 ± 26.2 ng; Amount in urine, 0–4 h ([3]; human, in vivo, po): 602 ± 552 ng; Amount in urine, 4–8 h ([3]; human, in vivo, po): 35.0 ± 57.1 ng; Amount in enzyme-treated urine, 0–4 h ([5]; human, in vivo): 8170 ± 5630 ng; Amount in enzyme-treated urine, 4–8 h ([5]; human, in vivo): 821 ± 654 ng; Amount in enzyme-treated urine, Pre ([5]; human, in vivo): 278 ± 261 ng; Increase of urine concentration after β-glucuronidase treatment compared with before treatment ([5]; human, in vivo): more than 10 fold |
| CCCCCCC[C@H](O)CC(=O)CCc1ccc(O)c(OC)c1 [[8]-Gingerol, [8]-Gingerol] | – | – | – | – | 49.5 ± 78.3 ng | BQL | 2.73 ± 5.46 ng | 8.97 ± 17.9 ng | BQL | BQL | – |
